Measurements as given in patent publication US9138411B2 (University of North Texas Health Science Center, priority 2012, dated 2015).

Conditions: human, in vivo, 4.5 mg/kg

blood plasma levels: 5 to 11 µmol
SMILES: COc1cc(/C=C/C(=O)CC(=O)/C=C/c2ccc(O)c(OC)c2)ccc1O [curcumin, diferuloylmethane]
